Measured values from article PMC10166890, “Screening for DAX1/EWS‐FLI1 functional inhibitors identified dihydroorotate dehydrogenase as a therapeutic target for Ewing's sarcoma” (Cancer Medicine, 2023).
Entries after “also recorded” stand apart in the source; their conditions may differ. Like-named read-outs stand apart in the source and are kept apart here.

Tests used:
[1] = biological target: T1, DHODH (Homo sapiens, UniProt Q02127); test: DHODH inhibition assay, A‐673 mitochondria fraction (orotic acid production, LCMSMS); format: biochemical
T1 construct: The mitochondria fraction was isolated from A‐673 cells using Q proteome Mitochondria Isolation kit; endogenous in cells; host or cells: A-673 cells, mitochondria fraction
T1 sequence (Q02127 whole entry): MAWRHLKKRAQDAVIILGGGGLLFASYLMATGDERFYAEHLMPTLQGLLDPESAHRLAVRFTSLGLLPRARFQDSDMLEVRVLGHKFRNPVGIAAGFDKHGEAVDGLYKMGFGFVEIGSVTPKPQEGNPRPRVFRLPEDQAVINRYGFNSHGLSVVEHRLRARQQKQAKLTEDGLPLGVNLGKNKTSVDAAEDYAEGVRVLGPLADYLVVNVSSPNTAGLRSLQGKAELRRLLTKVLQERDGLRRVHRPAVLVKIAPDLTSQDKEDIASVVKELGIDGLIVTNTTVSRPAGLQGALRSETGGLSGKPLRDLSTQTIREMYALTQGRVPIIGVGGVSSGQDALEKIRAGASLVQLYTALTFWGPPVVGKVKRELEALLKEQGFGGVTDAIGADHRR
Description: The mitochondria fraction was isolated from A‐673 cells using Q proteome Mitochondria Isolation kit (QIAGEN, Hilden, Germany). The protein concentration of the fraction was determined using the DC‐protein assay kit (Bio‐Rad Laboratories, Hercules, CA, USA) with bovine serum albumin (Sigma‐Aldrich) as the standard. […] The reaction was quenched by adding 120 μL of 3 μM 5‐fluoroorotic acid acetonitrile solution. These samples were then centrifuged at 5000 g for 5 min to precipitate proteins, and the supernatant was collected. The samples were diluted 10‐fold with 70% acetonitrile‐water and subjected to liquid chromatography with tandem mass spectrometry (LCMSMS). The analyte was then separated on a hydrophilic interaction chromatography column (PC‐HILIC; 5 μm, 4.6 mm I.D. × 50 mm; Osaka Soda, Osaka, Japan). LCMSMS detection was performed by electrospray ionization in negative ion mode.

[2] = biological target: T2, DHODH (Mus musculus, UniProt O35435); test: DHODH inhibition with mouse liver mitochondria; format: biochemical; details: mouse liver mitochondria; read-out: DHODH IC50 Mouse
T2 construct: IC50 value for the mouse liver mitochondrial fraction; from tissue; host or cells: mouse liver mitochondria
T2 sequence (O35435 whole entry): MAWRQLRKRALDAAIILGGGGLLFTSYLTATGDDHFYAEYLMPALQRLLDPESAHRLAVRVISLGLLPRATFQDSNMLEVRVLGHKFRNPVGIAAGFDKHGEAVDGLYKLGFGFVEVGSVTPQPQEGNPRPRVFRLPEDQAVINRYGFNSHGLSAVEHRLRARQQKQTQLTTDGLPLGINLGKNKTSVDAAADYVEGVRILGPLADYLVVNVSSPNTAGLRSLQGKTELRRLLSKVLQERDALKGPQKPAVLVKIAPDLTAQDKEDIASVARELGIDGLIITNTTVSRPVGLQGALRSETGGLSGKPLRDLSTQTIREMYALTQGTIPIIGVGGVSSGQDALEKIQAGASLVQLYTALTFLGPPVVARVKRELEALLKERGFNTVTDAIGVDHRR

[3] = system: EWS‐FLI1‐related genes; test: EWS‐FLI1‐related gene expression in A‐673 cells (RT‐qPCR); format: cell-based, human; details: 48 h; for Expression of DAX1, IGFBP3, and DKK1 in A‐673 cells / Effect of uridine addition on up‐regulation of DAX1, IGFBP3, and DKK1: 1000 nmol/L; for Effect of uridine addition on up‐regulation of DAX1, IGFBP3, and DKK1: uridine 100 μM
Description: Total RNA was extracted using the RNeasy Plus Mini kit (Qiagen, Valencia, CA, USA) according to the manufacturer's protocol. cDNA was synthesized from 1 μg of total RNA using a SuperScript VILO cDNA synthesis kit (Thermo Fisher Scientific). Real‐time PCR was carried out using TaqMan Fast Universal PCR Master Mix (Thermo Fisher Scientific).
FIGURE 3 EWS‐FLI1‐related gene expression after treatment with DAX1 inhibitors and knockdown of FLI1 in A‐673 cells. (A) A‐673 cells were treated with siRNA of FLI1 (siFLI‐1, siFLI‐2) or control siRNA (control siRNA1, control siRNA2) for 24 h, and EWS‐FLI1‐related genes were analyzed (details of siRNA are shown in Table S2). The gene expression was normalized by the GAPDH expression and normalized by the mean of control siRNA‐treated samples. Each bar represents the mean of duplicate measurements. (B) A‐673 cells were treated with PTC299 at 1000 nM for 48 h, and EWS‐FLI1‐related genes were analyzed. Gene expression was normalized by the GAPDH expression and by DMSO‐treated samples. Each bar represents the mean of duplicate measurements.
FIGURE 6 Influence of DHODH overexpression on Ewing's sarcoma cell growth and the EWS‐FLI1‐regulated gene expression. (A) pcDNA3.1hygro(+)‐hDHODH was transfected into A‐673 cells. The A‐673 cells with DHODH or control A‐673 cells were treated with indicated concentrations of PTC299 and KF20444 for 72 h, and cell viability was measured. Each plot represents the mean of triplicate measurements. (B) A‐673 cells with or without uridine (100 μM) were treated with indicated concentrations of PTC299 for 72 h, and cell viability was measured. Each plot represents the mean of triplicate measurements. (C) A‐673 cells with or without uridine (100 μM) were treated with PTC299 and KF20444 at 1000 nmol/L for 48 h, and the EWS‐FLI1‐related gene expression was evaluated. The expression was normalized by GAPDH and by DMSO‐treated samples. (D) KJMGER8/pAGal9p4‐hDAX1 cells with or without uridine (100 μM) were treated with indicated concentrations of PTC299 and K‐733 overnight, and the luciferase activity was measured. Each plot represents the mean of quadruplicate measurements.

[4] = system: TC‐71 cells; test: Cell viability assay (XTT), TC‐71 cells; format: cell-based, human; details: 72 h
Description: (§1) AsPC‐1, A‐673, and TC‐71 cells were seeded in 96‐well plates (800 cells/well for AsPC‐1, 2000 cells/well for A‐673, and 400 cells/well for TC‐71) and cultured overnight. Vehicle (DMSO) or a test compound diluted with the medium was then added to the wells (final DMSO concentration was 0.3%), and 72 h later, 2,3‐bis[2‐methoxy‐4‐nitro‐5‐sulfophenynl]‐2H‐tetrazolium‐5‐carboxanilide inner salt (XTT) reagent (Roche Diagnostics, Mannheim, Germany) was added to the medium. After 3‐h incubation at 37°C, the formation of the formazan dye was determined by measuring absorbance at 490 and 650 nm using a SpectraMax 340PC system (Molecular Devices, Sunnyvale, CA, USA).

[5] = system: A‐673 cells; test: Cell viability assay (XTT), A‐673 cells; format: cell-based, human; details: for Effect of DHODH overexpression on cell growth inhibitory effect in A‐673 cells: pcDNA3.1hygro(+)‐hDHODH transfected; for GI50: Homo sapiens, A673
Description: as §1

[6] = biological target: T3, DHODH (Rattus norvegicus, UniProt Q63707); test: DHODH inhibition with rat liver mitochondria; format: biochemical
T3 construct: from tissue; host or cells: rat liver mitochondria
T3 sequence (Q63707 whole entry): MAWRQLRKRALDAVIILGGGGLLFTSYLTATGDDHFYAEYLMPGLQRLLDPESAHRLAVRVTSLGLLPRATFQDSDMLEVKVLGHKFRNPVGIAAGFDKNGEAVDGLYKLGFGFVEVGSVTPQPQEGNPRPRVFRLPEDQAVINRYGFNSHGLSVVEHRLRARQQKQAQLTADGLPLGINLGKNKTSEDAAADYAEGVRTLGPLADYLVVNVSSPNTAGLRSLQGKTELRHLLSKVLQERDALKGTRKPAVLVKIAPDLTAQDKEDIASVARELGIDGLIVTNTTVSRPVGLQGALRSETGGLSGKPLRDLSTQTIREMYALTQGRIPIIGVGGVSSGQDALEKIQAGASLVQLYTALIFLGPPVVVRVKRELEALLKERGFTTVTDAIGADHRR

[7] = system: DAX1; test: DAX1 reporter assay (KJMGER8/pAGal9p4‐hDAX1 cells, luciferase); format: cell-based, human; details: for IC50: Homo sapiens; for Inhibitory effect on DAX1 reporter activity: overnight treatment
Description: pAGal9‐hDAX1 and pAPPRE×10‐Luc + were transfected into KJMGER8 cells by electroporation using a Gene Pulser (Bio‐Rad Laboratories, Hercules, CA, USA), and clones stably expressing the DAX1 and luciferase reporter genes under the control of PPRE were selected. The obtained clone was termed KJMGER8/pAGal9p4‐hDAX1. KJMGER8/pAGal9p4‐hDAX1 cells (1.8 × 10^4 cells/well) were seeded in 384‐well white plates (Greiner Japan, Tokyo, Japan) and cultured in RPMI1640‐IPTSG medium containing 10 nM 17β‐estradiol (E2; Sigma‐Aldrich), dissolved in ethanol, with test compounds at concentration ranges of 0.01 to 10,000 nM or vehicle (dimethyl sulfoxide [DMSO]). The final DMSO concentration was ≤0.3%, and the ethanol concentration was 0.1%. The next day, Blight‐Glo Luciferase Assay Reagent (Promega, Madison, WI, USA) was added to the medium. The luciferase activity was measured using a TopCount NXT system (PerkinElmer, Waltham, MA, USA). IC50 values were calculated using XLfit version 4 (ID Business Solutions, Surrey, UK).
A DAX1 reporter assay system was constructed with the estrogen‐inducible Namalwa cell (KJMGER8 cell) by co‐transfection with pAGal9‐hDAX1 and pAPPRE×10‐Luc+.[18] In the obtained cell line KJMGER8/pAGal9p4‐hDAX1, DAX1 expression is induced by E2 treatment, and the expressed DAX1 increases luciferase expression. Reporter activity was increased by E2 treatment as expected (Figure S2). […] Using this DAX1 reporter assay system, small‐molecule compounds in an in‐house library were screened to obtain DAX1 inhibitors, and K‐234 was identified (Figure 1).
pAGal9-hDAX1 and pAPPRE×10-Luc+ were transfected into KJMGER8 cells by electroporation using a Gene Pulser (Bio-Rad Laboratories, Hercules, CA, USA), and clones stably expressing the DAX1 and luciferase reporter genes under the control of PPRE were selected. The obtained clone was termed KJMGER8/pAGal9p4-hDAX1. KJMGER8/pAGal9p4-hDAX1 cells (1.8×10^4 cells/well) were seeded in 384-well white plates (Greiner Japan, Tokyo, Japan) and cultured in RPMI1640-IPTSG medium containing 10 nM 17β-estradiol (E2; Sigma-Aldrich), dissolved in ethanol, with test compounds at concentration ranges of 0.01 to 10000 nM or vehicle (dimethyl sulfoxide [DMSO]). The final DMSO concentration was ≤0.3%, and the ethanol concentration was 0.1%. The next day, Blight-Glo Luciferase Assay Reagent (Promega, Madison, WI, USA) was added to the medium. The luciferase activity was measured using a TopCount NXT system (PerkinElmer, Waltham, MA, USA). IC50 values were calculated using XLfit version 4 (ID Business Solutions, Surrey, UK)

[8] = system: RD‐ES cells; test: Cell viability, RD‐ES cells; format: cell-based, human; details: 120 h, type 2 fusion
Description: (§2) FIGURE 2 K‐234 influences the growth of Ewing's sarcoma. (A) Ewing's sarcoma‐derived A‐673 and TC‐71 cells and human pancreas adenocarcinoma‐derived AsPC‐1 cells as a control were treated with indicated concentrations of K‐234 for 72 h, and cell viability was measured. Each value represents the mean of duplicate measurements. (B) Ewing's sarcoma with type 2‐fusion gene‐derived SK‐ES‐1, RD‐ES, and MHH‐ES‐1 cells and Ewing's sarcoma with EWS‐ERG fusion gene‐derived CADO‐ES1 cells were treated with indicated concentrations of K‐234 for 120 h, and cell viability was measured. Each value represents the mean of duplicate measurements.

[9] = system: SK‐ES‐1 cells; test: Cell viability, SK‐ES‐1 cells; format: cell-based, human; details: 120 h, type 2 fusion
Description: as §2

[10] = system: CADO‐ES1 cells; test: Cell viability, CADO‐ES1 cells; format: cell-based, human; details: 120 h, EWS‐ERG fusion
Description: as §2

[11] = system: MHH‐ES‐1 cells; test: Cell viability, MHH‐ES‐1 cells; format: cell-based, human; details: 120 h, type 2 fusion
Description: as §2

[12] = 50% growth inhibition concentration, A‐673 cells
[13] = KJMGER8/pAGal9p4‐hDAX1 cells, 10 nM E2, overnight, read-out: IC50 for inhibition of DAX1 reporter activity
[14] = KJMGER8, Table S3, read-out: DAX1 reporter IC50

COc1ccc([C@H]2c3[nH]c4ccc(Cl)cc4c3CCN2C(=O)Oc2ccc(Cl)cc2)cc1 [PTC299, 4‐chlorophenyl (S)‐6‐chloro‐1‐(4‐methoxyphenyl)‐1,3,4,9‐tetrahydro‐2H‐pyrido[3,4‐b]indole‐2‐carboxylate]
IC50 ([1]; read-out: IC50 for orotic acid production through DHODH): 4.13 nM
IC50 [2]: 103 nM
DAX1 expression in A‐673 cells ([3]; 1000 nM): slightly induced
Expression of DAX1, IGFBP3, and DKK1 in A‐673 cells [3]: up‐regulated
Effect of uridine addition on up‐regulation of DAX1, IGFBP3, and DKK1 [3]: abrogated
Cell viability of TC‐71 cells [4]: decreased the viability
Cell viability of A‐673 cells ([5]; 72 h): decreased the viability
Effect of knockdown and overexpression of DAX1 on the reduction in viability of A‐673 cells ([5]; 72 h): no marked effect
Effect of DHODH overexpression on cell growth inhibitory effect in A‐673 cells ([5]; 72 h): significantly attenuated; also recorded: completely canceled
GI50 [5, 12]: 5.11 nM
Effect of uridine addition on growth inhibitory effect in A‐673 cells ([5]; uridine 100 μM, 72 h): completely blocked; also recorded: completely canceled
IC50 [6]: 1520 nM
IC50 [7, 13]: 33 nM
Effect of uridine addition on inhibition of DAX1 reporter activity ([7]; uridine 100 μM, overnight): completely abrogated

O=C(O)c1c2c(nc3ccc(F)cc13)-c1ccc(-c3ccccc3F)cc1CCC2 [KF20444]
IC50 ([1]; Table S3, read-out: DHODH IC50): 16.8 nM
IC50 [2]: 6.1 nM
Expression of DAX1, IGFBP3, and DKK1 in A‐673 cells [3]: up‐regulated
Effect of uridine addition on up‐regulation of DAX1, IGFBP3, and DKK1 [3]: abrogated
Cell viability of A‐673 cells ([5]; 72 h): reduced the cell viability
Effect of DHODH overexpression on cell growth inhibitory effect in A‐673 cells ([5]; 72 h): weakened; also recorded: partially attenuated
GI50 [5, 12]: 22.2 nM
IC50 [6]: 34.1 nM
IC50 [7, 14]: 13.2 nM

O=C(Oc1ccccc1)N1CCc2c([nH]c3ccc(Cl)cc23)C1c1ccc(Cl)cc1 (stereo not drawn) [K‐234, phenyl 6‐chloro‐1‐(4‐chlorophenyl)‐1,3,4, 9‐tetrahydro‐2H‐pyrido[3,4‐b]indole‐2‐carboxylate]
Cell viability of RD‐ES cells [8]: significantly reduced the viability
Cell viability of SK‐ES‐1 cells [9]: significantly reduced the viability
Cell viability of CADO‐ES1 cells [10]: significantly reduced the viability
Cell viability of MHH‐ES‐1 cells [11]: significantly reduced the viability
Cell viability of TC‐71 cells [4]: significantly reduced the viability
Cell viability of A‐673 cells ([5]; 72 h): significantly reduced the viability
IC50 [7, 13]: 94.5 nM

CC(=O)N1CCc2c([nH]c3ccc(Br)cc23)C1c1ccccc1 (stereo not drawn) [NSC 665564]
IC50 ([1]; Table S3, read-out: DHODH IC50): 3.49 nM
GI50 [5, 12]: 119 nM
IC50 [7, 14]: 666 nM

CC(=O)O[C@H]1C(=O)[C@@]2(C)[C@H]([C@H](OC(=O)c3ccccc3)[C@]3(O)C[C@H](OC(=O)[C@H](O)[C@@H](NC(=O)c4ccccc4)c4ccccc4)C(C)=C1C3(C)C)[C@]1(OC(C)=O)CO[C@@H]1C[C@@H]2O [Paclitaxel]
Inhibitory effect on DAX1 reporter activity [7]: did not inhibit
Inhibitory effect on DAX1 reporter activity ([7]; listed as paclitaxel): did not show a remarkable inhibitory effect

C/C(O)=C(\C#N)C(=O)Nc1ccc(C(F)(F)F)cc1 [Teriflunomide]
GI50 ([5]; Figure 7 legend): > 10000 nM
IC50 [7, 14]: 8500 nM

Cc1c(-c2ccc(-c3ccccc3F)cc2)nc2ccc(F)cc2c1C(=O)O [Brequinar]
GI50 [5, 12]: 115 nM
IC50 [7, 14]: 73 nM
